From PubChem BioAssay AID652002 (Sanford-Burnham Center for Chemical Genomics, 2013)
Activity calls are given as the source filed them. The rule behind the calls is not given here.

Key:
[1] = compound enhancement of TRAIL-induced cell killing – NB7 cells plus caspase-8, luminescence, panel, dose response (AID 652002); conditions: NB7 neuroblastoma +caspase-8, no TRAIL, compound-alone cytotoxicity counter-screen, luminescence viability, NB7+Caspase-8
NB7+Caspase-8 = experiment: as above; conditions: NB7 neuroblastoma +caspase-8, TRAIL sensitization, luminescence viability, with TRAIL
[2] = biological target: Tumor necrosis factor receptor superfamily member 10B (Homo sapiens) (UniProt O14763); experiment: as above; conditions: NB7 neuroblastoma +caspase-8, TRAIL sensitization, luminescence viability; NB7+Caspase-8; with TRAIL, mean of runs
Sequence of Tumor necrosis factor receptor superfamily member 10B (Homo sapiens) (O14763 whole entry, looked up): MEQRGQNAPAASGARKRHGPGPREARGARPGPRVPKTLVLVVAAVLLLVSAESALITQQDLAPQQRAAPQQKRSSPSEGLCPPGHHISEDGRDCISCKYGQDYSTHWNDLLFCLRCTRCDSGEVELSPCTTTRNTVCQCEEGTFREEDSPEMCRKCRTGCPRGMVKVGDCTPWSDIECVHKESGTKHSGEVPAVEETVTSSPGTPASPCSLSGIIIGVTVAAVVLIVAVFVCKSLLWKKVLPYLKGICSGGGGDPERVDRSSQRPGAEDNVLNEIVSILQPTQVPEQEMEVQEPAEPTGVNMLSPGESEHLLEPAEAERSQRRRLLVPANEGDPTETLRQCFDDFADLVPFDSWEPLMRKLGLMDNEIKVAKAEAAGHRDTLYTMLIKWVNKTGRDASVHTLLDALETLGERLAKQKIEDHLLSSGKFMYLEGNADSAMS

[3] = run 1, single replicate panel EC50
[4] = run 2, single replicate panel EC50

Row | Compound | EC50 ([1]; mean of runs) | EC50 [1, 3] [µM] | EC50 [1, 4] [µM] | EC50 (NB7+Caspase-8; [3]) [µM] | EC50 (NB7+Caspase-8; [4]) [µM] | EC50 [2]
1 | COC(=O)c1ccc(/C=C/c2nc3ccccc3c(=O)[nH]2)cc1 | > 12.5 µM (inactive) | > 12.5 | > 12.5 | > 12.5 | > 12.5 | > 12.5 µM (inactive)
2 | COC(=O)[C@]12CCCCC=C1N(Cc1cccc3ccccc13)C(=O)[C@H](CC(=O)NCc1ccc(OC)c(OC)c1)C2 | inactive | > 12.5 | 10.2 | > 12.5 | 10.7 | inactive
3 | COc1cccc(NC(=O)Nc2nccc(C)n2)c1 | > 12.5 µM (inactive) | > 12.5 | > 12.5 | > 12.5 | 4.33 | inactive
4 | COc1ccc2sc(-c3ccc(S(C)(=O)=O)cc3)c(C#Cc3cncn3C)c2c1 | > 12.5 µM (inactive) | > 12.5 | > 12.5 | > 12.5 | > 12.5 | > 12.5 µM (inactive)
5 | COC(=O)c1ccc(/C=C(\C#N)c2ccccn2)cc1 | > 12.5 µM (inactive) | > 12.5 | > 12.5 | > 12.5 | > 12.5 | > 12.5 µM (inactive)
6 | CCOC(=O)c1sc(NC(=O)Nc2ccc(F)cc2)nc1C | > 12.5 µM (inactive) | > 12.5 | > 12.5 | > 12.5 | > 12.5 | > 12.5 µM (inactive)
7 | CCOc1ccc(/C=C/C(=O)Nc2cccc(C(C)=O)c2)cc1 | > 12.5 µM (inactive) | > 12.5 | > 12.5 | > 12.5 | > 12.5 | > 12.5 µM (inactive)
8 | CC(C)CCn1cnc2c([nH]c3cccc(Cl)c32)c1=O | > 12.5 µM (inactive) | > 12.5 | > 12.5 | > 12.5 | > 12.5 | > 12.5 µM (inactive)
9 | Cn1c(=O)c2c(SCC(=O)Nc3ccccc3F)nc(C3CC3)nc2n(C)c1=O | > 12.5 µM (inactive) | > 12.5 | > 12.5 | > 12.5 | > 12.5 | > 12.5 µM (inactive)
10 | NNC(=O)C1CCCn2c1nc1sc3c(c1c2=O)CCCC3 (stereo not drawn) | > 12.5 µM (inactive) | > 12.5 | > 12.5 | > 12.5 | > 12.5 | > 12.5 µM (inactive)
11 | C/C(=N\NC(=O)c1n[nH]c2c1CCC2)c1ccco1 | > 12.5 µM (inactive) | > 12.5 | > 12.5 | > 12.5 | > 12.5 | > 12.5 µM (inactive)
12 | CCOc1ccc(-c2cc(C(=O)N3CCC(C)CC3)c3ccccc3n2)cc1 | > 12.5 µM (inactive) | > 12.5 | > 12.5 | > 12.5 | 11.5 | inactive
13 | O=C(c1cnc(Cl)c(Cl)c1)N1CCN(S(=O)(=O)c2ccc3ccccc3c2)CC1 | > 12.5 µM (inactive) | > 12.5 | > 12.5 | > 12.5 | > 12.5 | > 12.5 µM (inactive)
14 | CN1C[C@@H]2[C@@H]3C(=O)N(Cc4ccccc4)C(=O)[C@@H]3[C@](Cc3ccccc3)(C1=O)N2C(=O)c1ccc(C(C)(C)C)cc1 | > 12.5 µM (inactive) | > 12.5 | > 12.5 | > 12.5 | > 12.5 | > 12.5 µM (inactive)
15 | O=Nc1ccc(NO)c2ccccc12 | > 12.5 µM (inactive) | > 12.5 | > 12.5 | > 12.5 | 6.54 | inactive
16 | COc1cccc(NC(=O)c2ccc3c(c2)OCO3)c1 | inactive | 8.96 | 11.9 | 7.39 | 11 | inactive
17 | CN(C(=O)COC(=O)c1cnc(Cl)c(Cl)c1)C1CCCCC1 | > 12.5 µM (inactive) | > 12.5 | > 12.5 | > 12.5 | > 12.5 | > 12.5 µM (inactive)
18 | CC1(C)N=C(N)N=C(N)N1c1ccc(CCCCc2ccccc2)cc1 | inactive | > 12.5 | < 0.39 | < 0.39 | < 0.391 | < 0.39 µM (inactive)
19 | COc1cc(NC(=O)c2cncc(-c3ccc(C#N)cc3)c2)cc(C(=O)Nc2cccc(C(F)(F)F)c2)c1 | > 12.5 µM (inactive) | > 12.5 | > 12.5 | > 12.5 | > 12.5 | > 12.5 µM (inactive)

Row | Compound | EC50 ([1]; mean of runs) | EC50 [1, 3] [µM] | EC50 [1, 4] [µM] | EC50 (NB7+Caspase-8; [3]) [µM] | EC50 (NB7+Caspase-8; [4]) [µM] | EC50 [2]
20 | O=C(NNC(=O)c1cc(OCC(F)(F)F)ccc1OCC(F)(F)F)c1ccc(Cl)c(Cl)c1 | > 12.5 µM (inactive) | > 12.5 | > 12.5 | > 12.5 | > 12.5 | > 12.5 µM (inactive)
21 | CN(C)c1ccc(N/C=C/C(=O)c2ccco2)cc1 | inactive | 7.62 | > 12.5 | 7.78 | 6.42 | inactive
22 | Cc1c(P(=S)(c2ccccc2)c2ccccc2)[n+]2ccccc2n1CCc1ccccc1 | > 12.5 µM (inactive) | > 12.5 | > 12.5 | > 12.5 | > 12.5 | > 12.5 µM (inactive)
23 | CCOc1ccc(-c2nnc(-c3ccccc3)o2)cc1 | > 12.5 µM (inactive) | > 12.5 | > 12.5 | > 12.5 | 10.7 | inactive
24 | O=c1[nH]c(N/N=C\c2ccc3c(c2)OCO3)nc2ccccc12 | inactive | > 12.5 | 10.9 | > 12.5 | 10.1 | inactive
25 | CCN(CC)S(=O)(=O)c1ccc(C(=O)OCC(=O)Nc2ccc(-c3nc4ccc(C)cc4s3)cc2)cc1 | > 12.5 µM (inactive) | > 12.5 | > 12.5 | > 12.5 | > 12.5 | > 12.5 µM (inactive)
26 | O=c1[nH]c(=S)[nH]c2c1C(c1ccc(Cl)c(Cl)c1)OC(CCc1ccccc1)C2 (stereo not drawn) | > 12.5 µM (inactive) | > 12.5 | > 12.5 | > 12.5 | > 12.5 | > 12.5 µM (inactive)
27 | COc1ccc(/C=N/Nc2nc3ccccc3c(=O)n2-c2ccccc2)cc1OC | inactive | 7.35 | 9.86 | > 12.5 | 9.41 | inactive
28 | CN(C)CCCN(C(=O)c1ccc(S(=O)(=O)N2CCCc3ccccc32)cc1)c1nc2ccc(F)cc2s1 | > 12.5 µM (inactive) | > 12.5 | > 12.5 | > 12.5 | > 12.5 | > 12.5 µM (inactive)
29 | Cc1ccc2c(c1)C(=NC1CCCCC1)c1cc3ccccc3nc1-2 | > 12.5 µM (inactive) | > 12.5 | > 12.5 | > 12.5 | > 12.5 | > 12.5 µM (inactive)
30 | CCOC(=O)c1cnc2c(-c3ccccc3)cnn2c1N | > 12.5 µM (inactive) | > 12.5 | > 12.5 | > 12.5 | > 12.5 | > 12.5 µM (inactive)
31 | O=C1c2ccc3c4c(ccc(c24)C(=O)N1c1cccc(O)c1)C(=O)N(c1cccc(O)c1)C3=O | > 12.5 µM (inactive) | > 12.5 | > 12.5 | 2.35 | 12.4 | inactive
32 | CC(C)C[C@H](NC(=O)c1nc[nH]c1C(=O)N[C@@H](CCCCNC(=O)OC(C)(C)C)C(=O)OC(C)(C)C)C(=O)OCc1ccccc1 | > 12.5 µM (inactive) | > 12.5 | > 12.5 | > 12.5 | > 12.5 | > 12.5 µM (inactive)
33 | Cc1ccc2c(c1)-c1nc3ccccc3cc1C2=NC1CCCCC1 | > 12.5 µM (inactive) | > 12.5 | > 12.5 | > 12.5 | 7.45 | inactive
34 | C(=C\c1ccco1)/c1nc2ccccc2[nH]1 | > 12.5 µM (inactive) | > 12.5 | > 12.5 | > 12.5 | > 12.5 | > 12.5 µM (inactive)
35 | CN(C)CCCN(C(=O)c1ccc(C(=O)c2ccccc2)cc1)c1nc2ccc(F)cc2s1 | > 12.5 µM (inactive) | > 12.5 | > 12.5 | > 12.5 | > 12.5 | > 12.5 µM (inactive)
36 | CCOC(=O)C(=C1Nc2ccccc2N1)n1c(-c2cccnc2)nc2ccccc21 | inactive | > 12.5 | 10.5 | > 12.5 | 9.47 | inactive
37 | COc1ccc(NS(=O)(=O)c2cccc(C(=O)N/N=C/c3c(F)c(F)c(F)c(F)c3F)c2)cc1 | inactive | > 12.5 | 11.4 | > 12.5 | > 12.5 | > 12.5 µM (inactive)
38 | CCOC(=O)c1sc(NC(=O)c2cccc(S(=O)(=O)N3CCc4ccccc43)c2)c(C#N)c1C | > 12.5 µM (inactive) | > 12.5 | > 12.5 | > 12.5 | > 12.5 | > 12.5 µM (inactive)
